This passage reports IC50 results from patent US20060142337A1, “Piperidine derivative and use thereof” (priority 2004, published 2006).

Where a name gives a salt, the structure may show the parent alone.

What is called IC50 is the concentration that gives 50% inhibition. A lower IC50 goes with greater potency.

T1 sequence (P25103 whole entry): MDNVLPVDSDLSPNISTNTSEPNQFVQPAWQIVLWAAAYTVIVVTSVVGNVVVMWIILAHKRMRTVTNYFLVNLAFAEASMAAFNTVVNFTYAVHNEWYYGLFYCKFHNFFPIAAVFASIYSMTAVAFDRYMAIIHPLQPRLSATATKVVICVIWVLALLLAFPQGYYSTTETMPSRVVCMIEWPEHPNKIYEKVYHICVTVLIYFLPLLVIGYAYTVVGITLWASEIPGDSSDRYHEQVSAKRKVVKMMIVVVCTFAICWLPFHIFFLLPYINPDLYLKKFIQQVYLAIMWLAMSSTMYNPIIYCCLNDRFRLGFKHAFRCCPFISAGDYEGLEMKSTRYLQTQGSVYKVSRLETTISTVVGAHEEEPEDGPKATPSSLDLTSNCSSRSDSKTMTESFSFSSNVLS

The assay addresses T1, substance P receptor (Homo sapiens, UniProt P25103).
T1 construct: endogenous in cells; host or cells: IM-9 human lymphoblast cells (membrane preparation)
The assay is described as follows: Radioligand receptor binding inhibitory activity using receptor from human lymphoblast cells (IM-9). The following applies: [125I]-BHSP binding, receptor from IM-9 cells, 25 C, 30 min. Here is the method:
Radioligand receptor binding inhibitory activity (Binding inhibitory activity using receptor from human lymphoblast cells (IM-9))
The method of M. A. Cascieri et al., “Molecular Pharmacology 42, p. 458 (1992)” was modified and used. The receptor was. prepared from human lymphoblast cells (IM-9). IM-9 cells (2×10^5 cells/mL) were incubated for 3 days (one liter), which was then subjected to centrifuge for 5 min. at 500×G to obtain cell pellets. The obtained pellets were washed once with phosphate buffer (Flow Laboratories, CAT. No. 28-103-05), which were then homogenized using Polytron homogenizer (“Kinematika”, Germany) in 30 mL of 50 mM Tris-HCl buffer (pH 7.4) containing 120 mM sodium chloride, 5 mM potassium chloride, 2 μg/mL chymostatin, 40 μg/mL bacitracin, 5 μg/mL phosphoramidon, 0.5 mM phenylmethylsulfonyl fluoride, 1 mM ethylenediamine tetra-acetate, which was subjected to centrifuge at 40,000×G for 20 min. The residue was washed twice with 30 mL of the buffer, which was then preserved frozen (−80° C.) as a specimen of the receptor.
The specimen was suspended in a reaction buffer (50 mM Tris-HCl buffer (pH 7.4), 0.02% bovine serum albumin, 1 mM phenylmethylsulfonyl fluoride, 2 μg/mL chymostatin, 40 μg/mL bacitracin and 3 mM manganese chloride) to have protein in the concentration of 0.5 mg/mL of protein and 100 μL portion of the suspension was used in the reaction. After addition of the sample and ^125]-BHSP (0.46 KBq), the reaction was allowed to proceed in 0.2 mL of reaction buffer at […] for 30 min. The amount of nonspecific binding was determined by adding substance P at a final concentration of 2×10^−6 M.
After the reaction, using a cell harvester (290 PHD, Cambridge Technology, Inc, U.S.A.), filtration was carried out through a glass filter (GF/B, Whatman, U.S.A.), which was immersed in 0.1% polyethyleneimine for 24 hrs. and dried. After washing three times with 250 μL of 50 mM Tris-HCl buffer (pH 7.4) containing 0.02% bovine serum albumin, the radioactivity remaining on the filter was. determined with a gamma counter.
The antagonistic activity of each compound obtained in Examples was determined in terms of the concentration necessary to cause 50% inhibition (IC50 value) under the above-described conditions, and the results were shown in Table 14.
The radio ligand means substance P labeled with [^125I].
On to `C[C@@H](O[C@H]1CCN(C(=O)C2CCN(C3CCOC3=O)CC2)C[C@H]1c1ccccc1)c1cc(C(F)(F)F)cc(C(F)(F)F)c1` (single isomer, unassigned) [Example 34, hydrochloride], for which the IC50 amounted to 0.035 nM. The compound `C[C@@H](O[C@H]1CCN(C(=O)C2CCN(C3CCOC3=O)CC2)C[C@H]1c1ccccc1)c1cc(C(F)(F)F)cc(C(F)(F)F)c1` (single isomer, unassigned) [Example 35, hydrochloride] yielded a concentration for half-maximal inhibition (IC50) of 0.043 nM.

`COc1ccc(-n2nnnc2C(F)(F)F)cc1C(C)N[C@H]1CCN(C(=O)C2CCN(C(C)=O)CC2)C[C@H]1c1ccccc1` (single isomer, unassigned) [Example 83] displayed a half-maximal inhibitory concentration (IC50) of 0.058 nM. The IC50 values of the last two compounds are within 1.5-fold of each other. The same measure for `COc1ccc(-n2nnnc2C(F)(F)F)cc1C(C)N[C@H]1CCN(C(=O)CNC(C)=O)C[C@H]1c1ccccc1` (single isomer, unassigned) [Example 85]: 0.09 nM; for `CC(=O)N1CCC(C(=O)N2CC[C@H](O[C@H](C)c3cc(C(F)(F)F)cc(C(F)(F)F)c3)[C@H](c3ccccc3)C2)CC1` [Example 36, (3R,4S)-1-[(1-Acetylpiperidin-4-yl)carbonyl]-4-[(1R)-1-[3,5-bis(trifluoromethyl)phenyl]ethoxy]-3-phenylpiperidine]: 0.026 nM; for `CC(=O)NCC(=O)N1CCC(C(=O)N2CC[C@H](O[C@H](C)c3cc(C(F)(F)F)cc(C(F)(F)F)c3)[C@H](c3ccccc3)C2)CC1` [Example 38, N-[2-[4-[[(3R,4S)-4-[(1R)-1-[3,5-Bis(trifluoromethyl)phenyl]ethoxy]-3-phenylpiperidin-1-yl]carbonyl]piperidin-1-yl]-2-oxoethyl]acetamide]: 0.025 nM.

Consider `C[C@@H](O[C@H]1CCN(C(=O)C2CCN(C(=O)Cn3cnnn3)CC2)C[C@H]1c1ccccc1)c1cc(C(F)(F)F)cc(C(F)(F)F)c1` [Example 39, (3R,4S)-4-[(1R)-1-[3,5-Bis(trifluoromethyl)phenyl]ethoxy]-3-phenyl-1-[[1-(1H-tetrazol-1-ylacetyl)piperidin-4-yl]carbonyl]piperidine], for which the concentration for half-maximal inhibition (IC50) was determined as 0.032 nM.

In the case of `C[C@@H](O[C@H]1CCN(C(=O)C2CCN(C(=O)N3CCNC3=O)CC2)C[C@H]1c1ccccc1)c1cc(C(F)(F)F)cc(C(F)(F)F)c1` [Example 40, 1-[[4-[[(3R,4S)-4-[(1R)-1-[3,5-Bis(trifluoromethyl)phenyl]ethoxy]-3-phenylpiperidin-1-yl]carbonyl]piperidin-1-yl]carbonyl]imidazolidin-2-one], the half-maximal inhibitory concentration (IC50) was 0.038 nM. The same measure for `CC(=O)N[C@H]1CC[C@H](C(=O)N2CC[C@H](O[C@H](C)c3cc(C(F)(F)F)cc(C(F)(F)F)c3)[C@H](c3ccccc3)C2)CC1` [Example 42, N-[trans-4-[[(3R,4S)-4-[(1R)-1-[3,5-Bis(trifluoromethyl)phenyl]ethoxy]-3-phenylpiperidin-1-yl]carbonyl]cyclohexyl]acetamide]: 0.023 nM; for `CCCC(=O)N[C@H]1CC[C@H](C(=O)N2CC[C@H](O[C@H](C)c3cc(C(F)(F)F)cc(C(F)(F)F)c3)[C@H](c3ccccc3)C2)CC1` [Example 44, N-[trans-4-[[(3R,4S)-4-[(1R)-1-[3,5-Bis(trifluoromethyl)phenyl]ethoxy]-3-phenylpiperidin-1-yl]carbonyl]cyclohexyl]butanamide]: 0.053 nM. Then `CC(C)C(=O)N[C@H]1CC[C@H](C(=O)N2CC[C@H](O[C@H](C)c3cc(C(F)(F)F)cc(C(F)(F)F)c3)[C@H](c3ccccc3)C2)CC1` [Example 45, N-[trans-4-[[(3R,4S)-4-[(1R)-1-[3,5-Bis(trifluoromethyl)phenyl]ethoxy]-3-phenylpiperidin-1-yl]carbonyl]cyclohexyl]-2-methylpropanamide], with 0.05 nM; and `C[C@@H](O[C@H]1CCN(C(=O)[C@H]2CC[C@H](NC(=O)C3CC3)CC2)C[C@H]1c1ccccc1)c1cc(C(F)(F)F)cc(C(F)(F)F)c1` [Example 46, N-[trans-4-[[(3R,4S)-4-[(1R)-1-[3,5-Bis(trifluoromethyl)phenyl]ethoxy]-3-phenylpiperidin-1-yl]carbonyl]cyclohexyl]cyclopropanecarboxamide], with 0.061 nM; and `CNC(=O)N[C@H]1CC[C@H](C(=O)N2CC[C@H](O[C@H](C)c3cc(C(F)(F)F)cc(C(F)(F)F)c3)[C@H](c3ccccc3)C2)CC1` [Example 47, N-[trans-4-[[(3R,4S)-4-[(1R)-1-[3,5-Bis(trifluoromethyl)phenyl]ethoxy]-3-phenylpiperidin-1-yl]carbonyl]cyclohexyl]-N′-methylurea], with 0.036 nM. `C[C@@H](O[C@H]1CCN(C(=O)[C@H]2CC[C@H](NS(C)(=O)=O)CC2)C[C@H]1c1ccccc1)c1cc(C(F)(F)F)cc(C(F)(F)F)c1` [Example 49, N-[trans-4-[[(3R,4S)-4-[(1R)-1-[3,5-Bis(trifluoromethyl)phenyl]ethoxy]-3-phenylpiperidin-1-yl]carbonyl]cyclohexyl]methanesulfonamide] yielded an IC50 of 0.055 nM. This IC50 is about 1.5-fold higher than that of the compound before.

`C[C@@H](O[C@H]1CCN(C(=O)[C@H]2CC[C@H](NC(=O)c3cccs3)CC2)C[C@H]1c1ccccc1)c1cc(C(F)(F)F)cc(C(F)(F)F)c1` [Example 51, N-[trans-4-[[(3R,4S)-4-[(1R)-1-[3,5-Bis(trifluoromethyl)phenyl]ethoxy]-3-phenylpiperidin-1-yl]carbonyl]cyclohexyl]thiophene-2-carboxamide] yielded a half-inhibitory concentration (IC50) of 0.077 nM. The same measure for `CC(=O)N[C@H]1CC[C@@H](C(=O)N2CC[C@H](O[C@H](C)c3cc(C(F)(F)F)cc(C(F)(F)F)c3)[C@H](c3ccccc3)C2)CC1` [Example 54, N-[cis-4-[[(3R,4S)-4-[(1R)-1-[3,5-Bis(trifluoromethyl)phenyl]ethoxy]-3-phenylpiperidin-1-yl]carbonyl]cyclohexyl]acetamide]: 0.075 nM; for `C[C@@H](O[C@H]1CCN(C(=O)[C@H]2CC[C@H](NC(=O)CN3CCCCC3=O)CC2)C[C@H]1c1ccccc1)c1cc(C(F)(F)F)cc(C(F)(F)F)c1` [Example 57, N-[trans-4-[[(3R,4S)-4-[(1R)-1-[3,5-Bis(trifluoromethyl)phenyl]ethoxy]-3-phenylpiperidin-1-yl]carbonyl]cyclohexyl]-2-(2-oxopiperidin-1-yl)acetamide]: 0.057 nM; for `C[C@@H](O[C@H]1CCN(C(=O)[C@H]2CC[C@H](NC(=O)CCCCCl)CC2)C[C@H]1c1ccccc1)c1cc(C(F)(F)F)cc(C(F)(F)F)c1` [Example 59, N-[trans-4-[[(3R,4S)-4-[(1R)-1-[3,5-Bis(trifluoromethyl)phenyl]ethoxy]-3-phenylpiperidin-1-yl]carbonyl]cyclohexyl]-5-chloropentanamide]: 0.087 nM. The same measure for `COC(=O)N[C@H]1CC[C@H](C(=O)N2CC[C@H](O[C@H](C)c3cc(C(F)(F)F)cc(C(F)(F)F)c3)[C@H](c3ccccc3)C2)CC1` [Example 61, Methyl trans-4-[[(3R,4S)-4-[(1R)-1-[3,5-bis(trifluoromethyl)phenyl]ethoxy]-3-phenylpiperidin-1-yl]carbonyl]cyclohexylcarbamate]: 0.098 nM. The same measure for `CCNC(=O)N[C@H]1CC[C@H](C(=O)N2CC[C@H](O[C@H](C)c3cc(C(F)(F)F)cc(C(F)(F)F)c3)[C@H](c3ccccc3)C2)CC1` [Example 63, N-[trans-4-[[(3R,4S)-4-[(1R)-1-[3,5-Bis(trifluoromethyl)phenyl]ethoxy]-3-phenylpiperidin-1-yl]carbonyl]cyclohexyl]-N′-ethylurea]: 0.075 nM; for `CC(C)NC(=O)N[C@H]1CC[C@H](C(=O)N2CC[C@H](O[C@H](C)c3cc(C(F)(F)F)cc(C(F)(F)F)c3)[C@H](c3ccccc3)C2)CC1` [Example 65, N-[trans-4-[[(3R,4S)-4-[(1R)-1-[3,5-Bis(trifluoromethyl)phenyl]ethoxy]-3-phenylpiperidin-1-yl]carbonyl]cyclohexyl]-N′-isopropylurea]: 0.099 nM; for `C[C@@H](O[C@H]1CCN(C(=O)[C@H]2CC[C@H](NC(=O)N(C)C)CC2)C[C@H]1c1ccccc1)c1cc(C(F)(F)F)cc(C(F)(F)F)c1` [Example 66, N′-[trans-4-[[(3R,4S)-4-[(1R)-1-[3,5-Bis(trifluoromethyl)phenyl]ethoxy]-3-phenylpiperidin-1-yl]carbonyl]cyclohexyl]-N,N-dimethylurea]: 0.072 nM. On to `CNC(=O)[C@H]1CC[C@H](C(=O)N2CC[C@H](O[C@H](C)c3cc(C(F)(F)F)cc(C(F)(F)F)c3)[C@H](c3ccccc3)C2)CC1` [Example 68, trans-4-[[(3R,4S)-4-[(1R)-1-[3,5-Bis(trifluoromethyl)phenyl]ethoxy]-3-phenylpiperidin-1-yl]carbonyl]-N-methylcyclohexanecarboxamide], for which the IC50 turned out to be 0.094 nM. The IC50 values of the last two compounds are within 1.5-fold of each other.
